Measured values from US20250320206A1, “STAT6 DEGRADERS” (Gilead Sciences, Inc., priority 2024, published 2025).

target: T1, STAT6 (Homo sapiens, UniProt P42226); experiment: Stat6 Degrader Assay (HiBiT based, HeLa LgBiT clone 4.14); assay type: cell-based; settings: HeLa LgBiT clone 4.14 HiBiT-STAT6, 4-24 h incubation; read-out: STAT6 degradation Emax
T1 construct: These cells express endogenous STAT6; host or cells: HeLa LgBiT clone 4.14
T1 sequence (P42226 1-847): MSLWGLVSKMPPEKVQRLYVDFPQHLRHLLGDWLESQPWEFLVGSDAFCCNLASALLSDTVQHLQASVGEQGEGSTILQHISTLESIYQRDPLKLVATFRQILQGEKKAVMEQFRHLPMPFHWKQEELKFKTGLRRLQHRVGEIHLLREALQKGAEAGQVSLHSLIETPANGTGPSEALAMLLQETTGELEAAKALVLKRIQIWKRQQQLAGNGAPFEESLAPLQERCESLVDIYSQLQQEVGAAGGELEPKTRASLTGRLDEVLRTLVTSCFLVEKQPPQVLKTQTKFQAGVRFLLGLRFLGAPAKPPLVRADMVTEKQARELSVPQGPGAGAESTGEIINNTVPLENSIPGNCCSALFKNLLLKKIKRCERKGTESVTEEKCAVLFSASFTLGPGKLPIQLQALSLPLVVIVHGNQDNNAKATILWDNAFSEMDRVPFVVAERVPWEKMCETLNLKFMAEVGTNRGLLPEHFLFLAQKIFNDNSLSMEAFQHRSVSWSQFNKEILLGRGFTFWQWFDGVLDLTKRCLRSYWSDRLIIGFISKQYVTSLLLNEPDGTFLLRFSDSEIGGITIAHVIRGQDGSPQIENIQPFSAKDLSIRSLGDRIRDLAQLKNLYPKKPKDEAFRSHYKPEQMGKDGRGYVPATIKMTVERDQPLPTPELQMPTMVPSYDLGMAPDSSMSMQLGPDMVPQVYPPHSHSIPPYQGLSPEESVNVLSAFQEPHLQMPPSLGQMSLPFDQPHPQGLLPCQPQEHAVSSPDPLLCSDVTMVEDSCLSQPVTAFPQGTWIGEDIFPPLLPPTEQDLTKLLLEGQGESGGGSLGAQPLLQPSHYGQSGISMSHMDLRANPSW
Method: This was a HiBit based assay. A HeLa cell line stably transfected with a small protein, LgBit (Large Bit) was obtained from Promega. These cells express endogenous STAT6. A small 11 amino acid gene sequence (HiBiT) was inserted in the STAT6 gene using CRISPR technology. Once STAT6 protein is expressed in the cells, the HiBiT sequence will bind the LgBit in the cells resulting in a functional NanoBiT protein, giving a luminescent tag to STAT6, see FIG. 2.
Single cell clones were prepared and the clone 4.14 was selected for the assay based on that clone showing high luminescence, high STAT6 phosphorylation upon stimulation with IL-4, and inhibition of luminescence when cells were treated with STAT6 siRNA.
HeLa LgBiT clone 4.14 cells were suspended in DMEM with 10% FCS, 1% Pen/Strep, Na-pyrovate and Hygromycin B, at a concentration of 1.25*105 cells pr mL. 5000 cells were added pr well of a 384 well plate and 20 nL of compound was added by Echo® liquid handler. NN6394A (terfenadine, a toxic compound) was added to control wells at 50 μM concentration to establish the assay window. In these wells the cells are dead which equals 100% degradation of STAT6.
After 4-24 h of incubation at 37° C. under 5% CO2/95% air, 5 μL substrate (Nano-GLO®) was added to the wells and the plates were centrifuged and incubated for 0.5 h.
The luminescence in the wells as a measure of non-degraded STAT6 was measured in a plate reader (BMG Pherastar FSX).
The dose-response curves for Examples 3u208, 3u246, 3u118, 3u119, 3u120, and 3u74 are shown in FIG. 1 (where percent degradation is plotted vs. test compound concentration in M on a log-scale).

Row | Compound | Emax [%]
1 | C[C@H](c1cc2c(-n3ccc4[nH]ncc4c3=O)ccnc2n1C)N1CCC(c2ccc(C(=O)N3CCC(CN4CCN(Cc5ccc6c(c5)oc(=O)n6C5CCC(=O)NC5=O)CC4)CC3)cc2)CC1 (stereo partly drawn) [Example 3u265, 3-(6-((4-((1-(4-(1-((R)-1-(1-methyl-4-(4-oxo-1,4-dihydro-5H-pyrazolo[4,3-c]pyridin-5-yl)-1H-pyrrolo[2,3-b]pyridin-2-yl)ethyl)piperidin-4-yl)benzoyl)piperidin-4-yl)methyl)piperazin-1-yl)methyl)-2-oxobenzo[d]oxazol-3 (2H)-yl)piperidine-2,6-dione] | < 20

same assay, conditions: HeLa LgBiT clone 4.14 HiBiT-STAT6, 4-24 h incubation; values given for compounds with >80% Emax; geometric mean; read-out: STAT6 degradation DC50

Row | Compound | DC50 [nM]
2 | CNc1ccn(-c2ccnc3c2cc([C@H](C)N2CC=C(c4c(C)cc(C(=O)N5CCn6nc(CC7CCN(c8ccc9c(c8)n(C8CC8)c(=O)n9C8CCC(=O)NC8=O)CC7)cc6C5)cc4F)CC2)n3C)c(=O)c1 (stereo partly drawn) [Example 3u259, 3-(3-cyclopropyl-5-(4-((5-(3-fluoro-5-methyl-4-(1-((S)-1-(1-methyl-4-(4-(methylamino)-2-oxopyridin-1 (2H)-yl)-1H-pyrrolo[2,3-b]pyridin-2-yl)ethyl)-1,2,3,6-tetrahydropyridin-4-yl)benzoyl)-4,5,6,7-tetrahydropyrazolo[1,5-a]pyrazin-2-yl)methyl)piperidin-1-yl)-2-oxo-2,3-dihydro-1H-benzo[d]imidazol-1-yl)piperidine-2,6-dione] | 0.5
3 | CNc1cc(=O)n(-c2ccnc3c2cc([C@H](C)N2CC=C(c4c(C)cc(C(=O)N5CCC(CN6CCN(c7ccc8c(c7)n(C7CC7)c(=O)n8C7CCC(=O)NC7=O)CC6)CC5)cc4F)CC2)n3C)cc1F (stereo partly drawn) [Example 3u276, 3-(3-cyclopropyl-5-(4-((1-(3-fluoro-4-(1-((S)-1-(4-(5-fluoro-4-(methylamino)-2-oxopyridin-1 (2H)-yl)-1-methyl-1H-pyrrolo[2,3-b]pyridin-2-yl)ethyl)-1,2,3,6-tetrahydropyridin-4-yl)-5-methyl-benzoyl)piperidin-4-yl)methyl)piperazin-1-yl)-2-oxo-2,3-dihydro-1H-benzo[d]imidazol-1-yl)piperidine-2,6-dione] | 4.3
4 | Cc1cc(C(=O)N2CCC(CN3CCN(Cc4cc5c(cc4F)n(C4CCC(=O)NC4=O)c(=O)n5C4CC4)C[C@@H]3C)CC2)cc(F)c1C1=CCN([C@@H](C)c2cc3c(-n4ccc5c(c4=O)CCN5)ccnc3n2C)CC1 (stereo partly drawn) [Example 3u131, 3-(3-cyclopropyl-6-fluoro-5-(((S)-4-((1-(3-fluoro-5-methyl-4-(1-((S)-1-(1-methyl-4-(4-oxo-1,2,3,4-tetrahydro-5H-pyrrolo[3,2-c]pyridin-5-yl)-1H-pyrrolo[2,3-b]pyridin-2-yl)ethyl)-1,2,3,6-tetrahydropyridin-4-yl)benzoyl)piperidin-4-yl)methyl)-3-methylpiperazin-1-yl)methyl)-2-oxo-2,3-dihydro-1H-benzo[d]imidazol-1-yl)piperidine-2,6-dione] | 0.8
5 | CNc1ccn(-c2ccnc3c2cc(CN2CCC(c4c(F)cc(C(=O)N5CCC(CN6CCN(Cc7ccc8c(c7)C7(CC7)C(=O)N8C7CCC(=O)NC7=O)C[C@@H]6C)CC5)cc4F)CC2)n3C)c(=O)c1F (stereo partly drawn) [Example 3u84, 3-(5′-(((S)-4-((1-(3,5-difluoro-4-(1-((4-(3-fluoro-4-(methylamino)-2-oxopyridin-1 (2H)-yl)-1-methyl-1H-pyrrolo[2,3-b]pyridin-2-yl)methyl)piperidin-4-yl)benzoyl)piperidin-4-yl)methyl)-3-methylpiperazin-1-yl)methyl)-2′-oxospiro[cyclopropane-1,3′-indolin]-1′-yl)piperidine-2,6-dione] | 26
6 | CNc1ccn(-c2ccnc3c2cc([C@H](C)N2CC=C(c4c(C)cc(C(=O)N5CCC(CN6CCN(Cc7cc8c(cc7F)n([C@H]7CCC(=O)NC7=O)c(=O)n8C7CC7)CC6)CC5)cc4F)CC2)n3C)c(=O)c1 (single isomer, unassigned) [Example 3u104] | 0.9
7 | CNc1ccn(-c2ccnc3c2cc([C@H](C)N2CC=C(c4c(C)cc(C(=O)N5CCC(CN6CCN(Cc7ccc8c(c7)n(C7CC7)c(=O)n8[C@H]7CCC(=O)NC7=O)C[C@@H]6C)CC5)cc4F)CC2)n3C)c(=O)c1 (single isomer, unassigned) [Example 3u112] | 0.5
8 | CNc1ccn(-c2ccnc3c2cc([C@H](C)N2CC=C(c4c(C)cc(C(=O)N5CCC(CN6CCN(Cc7ccc8c(c7)n(C)c(=O)n8[C@@H]7CCC(=O)NC7=O)C[C@@H]6C)CC5)cc4F)CC2)n3C)c(=O)c1 (single isomer, unassigned) [Example 3u34] | 0.3
9 | CNc1ccn(-c2ccnc3c2cc([C@H](C)N2CC=C(c4c(C)cc(C(=O)N5CCC(CN6CCN(Cc7ccc8c(c7)C7(CCCC7)C(=O)N8C7CCC(=O)NC7=O)CC6)CC5)cc4F)CC2)n3C)c(=O)c1 (stereo partly drawn) [Example 3u110, 3-(5′-((4-((1-(3-fluoro-5-methyl-4-(1-((S)-1-(1-methyl-4-(4-(methylamino)-2-oxopyridin-1 (2H)-yl)-1H-pyrrolo[2,3-b]pyridin-2-yl)ethyl)-1,2,3,6-tetrahydropyridin-4-yl)benzoyl)piperidin-4-yl)methyl)piperazin-1-yl)methyl)-2′-oxospiro[cyclopentane-1,3′-indolin]-1′-yl)piperidine-2,6-dione] | 2.5
10 | Cc1cc(C(=O)N2CCC(CN3CCN(Cc4ccc5c(c4)n(C)c(=O)n5[C@@H]4CCC(=O)NC4=O)C[C@@H]3C)CC2)cc(F)c1C1CCN(Cc2cc3c(-n4ccc5c(c4=O)CCN5)ccnc3n2C)CC1 (single isomer, unassigned) [Example 3u40] | 2.3
11 | CNc1ccn(-c2ccnc3c2cc([C@H](C)N2CC=C(c4c(C)cc(C(=O)N5CCC(CN6CCN(Cc7ccc8c(c7)n(C7CC7)c(=O)n8[C@@H]7CCC(=O)NC7=O)C[C@@H]6C)CC5)cc4F)CC2)n3C)c(=O)c1 (single isomer, unassigned) [Example 3u113] | 0.6
12 | CNc1ccn(-c2ccnc3c2cc(CN2CC=C(c4c(F)cc(C(=O)N5CCC(CN6CCN(Cc7ccc8c(c7)n(C)c(=O)n8[C@H]7CCC(=O)NC7=O)C[C@@H]6C)CC5)cc4F)CC2)n3C)c(=O)c1 (single isomer, unassigned) [Example 3u2] | 4.3
13 | Cc1cc(C(=O)N2CCC(CN3CCN(Cc4ccc5c(c4)n(C4CC4)c(=O)n5[C@H]4CCC(=O)NC4=O)C[C@@H]3C)CC2)cc(F)c1C1=CCN([C@@H](C)c2cc3c(-n4ccc5c(c4=O)CCN5)ccnc3n2C)CC1 (single isomer, unassigned) [Example 3u145] | 2
14 | Cc1cc(C(=O)N2CCC(CN3CCN(Cc4ccc5c(c4)n(C4CC4)c(=O)n5[C@@H]4CCC(=O)NC4=O)C[C@@H]3C)CC2)cc(F)c1C1=CCN([C@@H](C)c2cc3c(-n4ccc5c(c4=O)CCN5)ccnc3n2C)CC1 (single isomer, unassigned) [Example 3u144] | 0.4
15 | CNc1ccn(-c2ccnc3c2cc([C@H](C)N2CC=C(c4c(C)cc(C(=O)N5CCC(CN6CCN(Cc7ccc8c(c7)n(C)c(=O)n8[C@H]7CCC(=O)NC7=O)CC6)CC5)cc4F)CC2)n3C)c(=O)c1 (single isomer, unassigned) [Example 3u156] | 0.6
16 | CNc1ccn(-c2ccnc3c2cc([C@H](C)N2CC=C(c4c(C)cc(C(=O)N5CCC(CN6CCN(Cc7cc8c(cc7F)n([C@@H]7CCC(=O)NC7=O)c(=O)n8C7CC7)C[C@@H]6C)CC5)cc4F)CC2)n3C)c(=O)c1 (single isomer, unassigned) [Example 3u168] | 2.1
